Assay results taken from patent US9427482B2, “Agents for clearing biomolecules from circulation” (KONINKLIJKE PHILIPS N.V., priority 2010, dated 2016).

Experiments:
[1] = Mouse radiation dosimetry (voxelized mouse model, EGSNRC)
Procedure: (§1) Radiation dosimetry estimates were calculated for a male human model (standard 73 Kg adult) and for a voxelized mouse model by using the mouse biodistribution data (Example 12, Tables 7 and 8) according to the MIRD methodology. Activity concentration in these organs were converted in percent injected dose (% ID) and decay corrected to the time of injection. The % ID for blood, muscle and bone were estimated from the % ID/g of tissue and assuming 6%, 42% and 11% of the body weight. Whenever possible the time activity curves were fitted by a two-phase exponential clearance function. The fitted function was then integrated analytically to yield the organ residence times (Table 9). […] The time activity curve of the tumor was fitted by a mono-exponential uptake function defined as F(t)=a0(1−exp(−a1t)).
Radiation doses to the mouse organs were evaluated using the MIRD methodology where the S-factors in the mouse were calculated using a voxelized model of a mouse and the electron transport program EGSNRC to calculate energy deposition. The MOBY mouse phantom of Segars et al. was voxelized on a 0.2 mm grid and further modified to include the following organs: intestine wall and content, stomach wall and content, bladder wall and content and a 20 μl gall bladder. Finally, a 0.53 g tumor was added to the left side of the neck of the animal. Twenty-seven independent simulations, each for 10 millions decays, were performed with the program EGSNRC to calculate the energy deposition in each target organ for each source organ. The simulation included all decay particles from ^177Lu as listed in www.nndc.bnl.gov/MIRD tables. These S-factors were then used with the organ residence times measured above.

[2] = Human radiation dosimetry (OLINDA/EXM); settings: human model, 73 Kg adult male
Procedure: as §1
Human radiation dosimetry (Table 10) were calculated using the above measured residence times and the OLINDA/EXM program with the following assumptions: 10% of the blood residence time was assigned to the heart content and 90% was assigned to the remainder of the body; the activity measured in the small and large intestines were assigned to the organ content but the radiation dose was assigned to the organ itself; activity in the large intestine was assigned in equal part to the upper and lower large intestines; activity in the bone was assigned in equal parts to the trabecular and […] bone components. The bladder voiding model in OLINDA/EXM was used. Residence time to the red marrow was calculated as a fraction of blood residence time (τmarrow=0.08 τblood).

[3] = Organ residence times from mouse biodistribution data (MIRD)
Procedure: as §1
For ^177Lu-DOTA-CC49 some radioactivity was collected in the mixture of urine and feces. […] For the pretargeted ^177Lu-tetrazine a total of 97.8% ID was excreted.

Effective Dose [1]: 15.6 mSv/MBq | Organ Radiation dose Bladder Wall [1]: 168 mGy/MBq | Organ Radiation dose Brain [1]: 1 mGy/MBq | Organ Radiation dose Cranium [1]: 13 mGy/MBq | Organ Radiation dose Femur [1]: 8 mGy/MBq | Organ Radiation dose Gall Bladder [1]: 2 mGy/MBq | Organ Radiation dose Heart Wall [1]: 2 mGy/MBq | Organ Radiation dose Intestine Wall [1]: 9 mGy/MBq | Organ Radiation dose Kidneys [1]: 58 mGy/MBq | Organ Radiation dose Liver [1]: 10 mGy/MBq | Organ Radiation dose Lungs [1]: 5 mGy/MBq | Organ Radiation dose Pancreas [1]: 2 mGy/MBq | Organ Radiation dose Ribs [1]: 8 mGy/MBq | Organ Radiation dose Skin [1]: 1 mGy/MBq | Organ Radiation dose Spine [1]: 8 mGy/MBq | Organ Radiation dose Spine (marrow) [1]: 7 mGy/MBq | Organ Radiation dose Spleen [1]: 15 mGy/MBq | Organ Radiation dose Stomach Wall [1]: 16 mGy/MBq | Organ Radiation dose Testes (ovaries) [1]: 1 mGy/MBq | Organ Radiation dose Thyroid [1]: 1 mGy/MBq | Organ Radiation dose Trachea [1]: 2 mGy/MBq | Radiation dose Whole Body [1]: 5 mGy/MBq | Radiation dose Tumor ([1]; 0.53 g tumor): 479 mGy/MBq | Effective Dose [2]: 0.0195 mSv/MBq | Organ Radiation dose Adrenals [2]: 0.00162 mGy/MBq | Organ Radiation dose Bladder Wall [2]: 0.104 mGy/MBq | Organ Radiation dose Brain [2]: 0.000146 mGy/MBq | Organ Radiation dose Breasts [2]: 0.0013 mGy/MBq | Organ Radiation dose Gall Bladder Wall [2]: 0.0018 mGy/MBq | Organ Radiation dose Heart Wall [2]: 0.000537 mGy/MBq | Organ Radiation dose Kidneys [2]: 0.0425 mGy/MBq | Organ Radiation dose Liver [2]: 0.0142 mGy/MBq | Organ Radiation dose Lower Large Int. [2]: 0.0363 mGy/MBq | Organ Radiation dose Lungs [2]: 0.00288 mGy/MBq | Organ Radiation dose Muscle [2]: 0.000861 mGy/MBq | Organ Radiation dose Osteogenic cells [2]: 0.00172 mGy/MBq | Organ Radiation dose Ovaries [2]: 0.0341 mGy/MBq | Organ Radiation dose Pancreas [2]: 0.00164 mGy/MBq | Organ Radiation dose Red marrow [2]: 0.00302 mGy/MBq | Organ Radiation dose Skin [2]: 0.0029 mGy/MBq | Organ Radiation dose Small Intestines [2]: 0.0101 mGy/MBq | Organ Radiation dose Spleen [2]: 0.0112 mGy/MBq | Organ Radiation dose Stomach Wall [2]: 0.00599 mGy/MBq | Organ Radiation dose Testes [2]: 0.00151 mGy/MBq | Organ Radiation dose Thymus [2]: 0.00134 mGy/MBq | Organ Radiation dose Thyroid [2]: 0.00132 mGy/MBq | Organ Radiation dose Total Body [2]: 0.00287 mGy/MBq | Organ Radiation dose Upper large Int. [2]: 0.0231 mGy/MBq | Organ Radiation dose Uterus [2]: 0.0293 mGy/MBq | Residence time Bladder Wall [3]: 0.009 h | Residence time Blood [3]: 0.067 h | Residence time Bone [3]: 0.239 h | Residence time Brain [3]: 0.001 h | Residence time Heart Wall [3]: 0.001 h | Residence time Kidneys [3]: 0.293 h | Residence time Large Intestines [3]: 0.23 h | Residence time Liver [3]: 0.302 h | Residence time Lungs [3]: 0.031 h | Residence time Muscle [3]: 0.19 h | Residence time Ovaries [3]: 0.0034 h | Residence time Small Intestines [3]: 0.082 h | Residence time Spleen [3]: 0.023 h | Residence time Stomach [3]: 0.032 h | Residence time Tumor [3]: 3.93 h | Residence time Uterus [3]: 0.026 h | Residence time remainder of the body [3]: 1 h | Residence time Red Marrow ([3]; τmarrow=0.08 τblood): 0.0054 h
SMILES: O=C([O-])CN1CCN(CC(=O)[O-])CCN(CC(=O)NCCOCCOCCOCCOCCOCCOCCOCCOCCOCCOCCOCCNC(=O)CCCC(=O)Nc2ccc(-c3nnc(-c4ccccn4)nn3)nc2)CCN(CC(=O)[O-])CC1.[177Lu+3] [^177Lu-tetrazine]
